# Data published in US20220362167A1, “WATER-DISPERSIBLE CANNABIDIOL PRODUCT AND PREPARATION METHOD THEREFOR” (GUILIN LAYN NATURAL INGREDIENTS CORP., priority 2019, published 2022).
# Experiment: Water solubility test of cannabidiol product
# Format: physicochemical
# Details: 50 mg in 500 mL distilled water, room temperature, stirred
# Protocol: Water Solubility Test of Cannabidiol Product
# Three parts of 500 mL of distilled water are taken. 50 mg of the cannabidiol product prepared in Example 1, Comparative Example 1 and Comparative Example 2 are added respectively at room temperature, and stirred, and recorded the time required for dissolution, with the cannabidiol as control.
smiles,measurement,value
C=C(C)[C@@H]1CCC(C)=C[C@H]1c1c(O)cc(CCCCC)cc1O [cannabidiol],appearance of the solution,precipitation and delamination
